Experimental data as given in patent publication US11485751B2, “Apramycin derivatives” (WAYNE STATE UNIVERSITY, priority 2017, dated 2022).
Values after ≈ are worked out from the molar mass of the structure shown.

Key:
WT clinical isolates = test: MIC broth microdilution, WT; type: cell-based; details: read-out: MIC WT, clinical isolates, IMM Univ. Zurich; wild type
From the text: (§1) Minimal inhibitory concentrations (MIC) have been determined by broth microdilution assays (CLSI. Methods for Dilution Antimicrobial Susceptibility Tests for Bacteria That Grow Aerobically; Approved Standard—Tenth Edition. CLSI document M07-A10. Wayne, Pa.: Clinical and Laboratory Standards Institute; 2015.).
(§2) Minimal inhibitory concentrations (MICs, […]) against clinical isolates from Institute of Medical Microbiology, Univ. Zurich, and the IC50 values for bacterial, human mitochondrial and human cytosolic ribosomes are indicated.
(§3) Minimal inhibitory concentrations (μg/ml) against clinical isolates from Institute of Medical Microbiology, Univ. Zurich, and the IC50 values for bacterial, human mitochondrial and human cytosolic ribosomes are indicated.
(§4) The Minimal inhibitory concentrations (MICs, μg/ml) against clinical isolates from Institute of Medical Microbiology, Univ Zurich, and the IC50 values for bacterial, human mitochondrial and human cytosolic ribosomes are indicated.

[1] = tested on: clinical isolates carrying AAC(3)-IV; test: MIC broth microdilution, AAC(3)-IV; type: cell-based; details: read-out: MIC AAC(3)-IV
From the text: as §1, §2, §3, §4

isolates carrying apmA = test: MIC broth microdilution, apmA; type: cell-based; details: apmA resistance gene
From the text: as §1, with “2015.). […]” for “2015.).”
as §3, §4

bacterial ribosomes = test: in-vitro translation assay, bacterial ribosomes; type: biochemical
From the text: (§5) IC50 values for bacterial, human chimeric, and rabbit reticulocyte ribosomes have been determined by in-vitro translation assays as described previously (Proc. Nat. Ac. Sci USA 2012, 109(27):10984-10989).
as §2

[2] = tested on: human mitochondrial ribosomes; test: in-vitro translation assay, human mitochondrial (human chimeric) ribosomes; type: biochemical
From the text: as §5, §2

[3] = tested on: human cytosolic ribosomes; test: in-vitro translation assay, human cytosolic ribosomes; type: biochemical
From the text: as §5, §2

[4] = tested on: AG212, Escherichia coli ATCC25922; test: MIC reference strain AG212; type: cell-based; details: Escherichia coli, ATCC25922, read-out: MIC AG212 E. coli
From the text: as §1
(§6) Table 4 and 5 show the antibacterial activity of the compounds of the invention against bacterial reference strains (table 4) and against representative clinical isolates (table 5).
(§7) Legend to Tables: GEN, gentamicin; AMK, amikacin; PLZ, plazomicin; APR, apramycin; AG212, Escherichia coli ATCC25922; AG215, Klebsiella pneumonia; AG220, Pseudomonas aeruginosa ATCC27853; AG225, Acinetobacter baumannii pittii; AG290, Enterobacter cloacae; […], Mycobacterium smegmatis. MICs for AG192 have been determined in the presence of 0.5 μg/mL of ampicillin in the medium to mimic the synergistic effect of aminoglycoside and β-lactam antibiotics combination therapy in the treatment of Enterococcus infections in humans.

[5] = tested on: AG215, Klebsiella pneumonia; test: MIC reference strain AG215; type: cell-based; details: Klebsiella pneumoniae, read-out: MIC AG215 K. pneumonia
From the text: as §1, §6, §7

[6] = tested on: AG290, Enterobacter cloacae; test: MIC reference strain AG290; type: cell-based; details: Enterobacter cloacae, read-out: MIC AG290 E. cloacae
From the text: as §1, §6, §7

[7] = tested on: AG220, Pseudomonas aeruginosa ATCC27853; test: MIC reference strain AG220; type: cell-based; details: Pseudomonas aeruginosa, ATCC27853, read-out: MIC AG220 P. aeruginosa
From the text: as §1, §6, §7

[8] = tested on: AG225, Acinetobacter baumannii pittii; test: MIC reference strain AG225; type: cell-based; details: Acinetobacter baumannii, read-out: MIC AG225 A. baumannii
From the text: as §1, §6, §7

[9] = tested on: SZ380, Mycobacterium smegmatis; test: MIC reference strain SZ380; type: cell-based; details: Mycolicibacterium smegmatis, read-out: MIC SZ380 M. smegmatis
From the text: as §1, §6, §7

ATCC19977 M. abcessus = test: MIC reference strain ATCC19977; type: cell-based; details: read-out: MIC ATCC19977 M. abcessus
From the text: as §1, §6

AG001 E. coli WT = test: Antibacterial activity, clinical isolate AG001; type: cell-based
From the text: as §1, §6

AG173 E. coli AAC(3)-IV = test: Antibacterial activity, clinical isolate AG173; type: cell-based
From the text: as §1, §6

AG163 E. coli APH(3′)-I = test: Antibacterial activity, clinical isolate AG163; type: cell-based
From the text: as §1, §6

AG038 MRSA = test: Antibacterial activity, clinical isolate AG038; type: cell-based
From the text: as §1, §6

AG031 P. aer. APH(3′)-II = test: Antibacterial activity, clinical isolate AG031; type: cell-based; design: unit not given here
From the text: as §1, §6

[10] = tested on: Engineered E. coli pH430 WT; test: Activity, engineered E. coli pH430 WT; type: cell-based; details: wild type
From the text: as §1

[11] = tested on: Engineered E. coli pH424 armA; test: Activity against G1405-methylated 16S-rRNA, E. coli pH424 armA; type: cell-based
From the text: as §1

[12] = tested on: E. coli AG153 AAC(3)-II APH(3′)-II rmtB; test: Activity against G1405-methylated 16S-rRNA, clinical isolate AG153; type: cell-based
From the text: as §1

[13] = tested on: K. pneum. AG269 AAC(3)-II AAC(6′)-I rmtB; test: Activity against G1405-methylated 16S-rRNA, clinical isolate AG269; type: cell-based
From the text: as §1

[14] = tested on: Enterob. AG302 AAC(3)-II AAC(6′)-I rmtC; test: Activity against G1405-methylated 16S-rRNA, clinical isolate AG302; type: cell-based
From the text: as §1

[15] = tested on: A baum. AG227 APH(3′)-I armA; test: Activity against G1405-methylated 16S-rRNA, clinical isolate AG227; type: cell-based
From the text: as §1

CN[C@H]1C(O)C2O[C@H](O[C@@H]3C(N)C[C@@H](N)[C@@H](O)[C@H]3OCC(O)CN)C(N)C[C@@H]2O[C@@H]1O[C@H]1OC(CO)[C@@H](N)[C@H](O)C1O (some centres unmarked) [DC209] was tested, and the MIC (WT clinical isolates) was 2 to 4 µg/mL (≈ 3.26 to 6.53 µM), the MIC [1] was 8 µg/mL (≈ 13.1 µM) and the MIC (isolates carrying apmA) was 64 to 128 µg/mL (≈ 104 to 209 µM). The IC50 (bacterial ribosomes) was 0.04 µM, the IC50 [2] was 146 µM and the IC50 [3] was 105 µM. It also gave an MIC [4] of 2 to 4 µg/mL, an MIC [5] of 1 µg/mL and an MIC [6] of 1 µg/mL. For the same compound, the MIC [7] was 2 to 4 µg/mL, the MIC [8] was 4 µg/mL and the MIC [9] was 0.125 µg/mL. The MIC (ATCC19977 M. abcessus) was 0.5 to 1 µg/mL (≈ 0.816 to 1.63 µM), the “Antibacterial activity AG001 E. coli WT” value (AG001 E. coli WT) was 2 and the “Antibacterial activity AG173 E. coli AAC(3)-IV” value (AG173 E. coli AAC(3)-IV) was 32. The “Antibacterial activity AG163 E. coli APH(3′)-I” value (AG163 E. coli APH(3′)-I) was 4, the “Antibacterial activity AG038 MRSA” value (AG038 MRSA) was 1-2 and the “Antibacterial activity AG031 P. aer. APH(3′)-II” value (AG031 P. aer. APH(3′)-II) was 4. The “Activity E. coli pH430 WT” value [10] was 2-4, the “Activity E. coli pH424 armA” value [11] was 2 and the “Activity E. coli AG153 AAC(3)-II APH(3′)-II rmtB” value [12] was 2-4. For the same compound, the “Activity K. pneum. AG269 AAC(3)-II AAC(6′)-I rmtB” value [13] was 1, the “Activity Enterob. AG302 AAC(3)-II AAC(6′)-I rmtC” value [14] was 2 and the “Activity A baum. AG227 APH(3′)-I armA” value [15] was 2-4.

In the case of CN[C@H]1C(O)C2O[C@H](O[C@@H]3C(N)C[C@@H](N)[C@@H](O)[C@H]3OCCCN)C(N)C[C@@H]2O[C@@H]1O[C@H]1OC(CO)[C@@H](N)[C@H](O)C1O (some centres unmarked) [DC213], the MIC (WT clinical isolates) is reported as 4 µg/mL (≈ 6.7 µM), the MIC [1] is reported as 64 µg/mL (≈ 107 µM) and the MIC (isolates carrying apmA) is reported as 64 to 128 µg/mL (≈ 107 to 215 µM). The IC50 (bacterial ribosomes) was 0.21 µM, the IC50 [2] was 327 µM and the IC50 [3] was 210 µM. It also gave an MIC [4] of 4 to 8 µg/mL, an MIC [5] of 2 µg/mL and an MIC [6] of 4 to 8 µg/mL. It also gave an MIC [7] of 8 µg/mL, an MIC [8] of 8 µg/mL and an MIC [9] of 0.25 µg/mL. For the same compound, the MIC (ATCC19977 M. abcessus) was 1 µg/mL (≈ 1.68 µM), the “Antibacterial activity AG001 E. coli WT” value (AG001 E. coli WT) was 16 and the “Antibacterial activity AG173 E. coli AAC(3)-IV” value (AG173 E. coli AAC(3)-IV) was 128. The “Antibacterial activity AG038 MRSA” value (AG038 MRSA) was 4, the “Antibacterial activity AG031 P. aer. APH(3′)-II” value (AG031 P. aer. APH(3′)-II) was 16-32 and the “Activity E. coli pH430 WT” value [10] was 4. The “Activity E. coli pH424 armA” value [11] was 4, the “Activity E. coli AG153 AAC(3)-II APH(3′)-II rmtB” value [12] was 32 and the “Activity K. pneum. AG269 AAC(3)-II AAC(6′)-I rmtB” value [13] was 4-8. For the same compound, the “Activity Enterob. AG302 AAC(3)-II AAC(6′)-I rmtC” value [14] was 4-8 and the “Activity A baum. AG227 APH(3′)-I armA” value [15] was 4-8.
